Experiment in all cases: growth of human tumour cells (NCI), 48 h
In assay [1] the test system is HCT-116.
Assay [2] deals with MCF7.
Assay [3] concerns SNB-75.
Assay [4] has as its system IGROV-1.
In assay [5] the test system is SNB-19.
In assay [6] the test system is Hs-578T.
The subject of assay [7] is NCI/ADR-RES.
Assay [8] deals with M14.
Assay [9] has as its system SF-539.
In assay [10] the test system is HCT-15.
The subject of assay [11] is T47D.
Assay [12] has as its system PC-3.
Assay [13] concerns UACC-62.
The test system of assay [14] is UACC-257.
Assay [15] concerns SF-295.
Assay [16] has as its system OVCAR-8.
The test system of assay [17] is U-251.
Assay [18] concerns 786-0.
Assay [19] concerns RXF 393.

Each structure is given as a SMILES string.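 Five compound concentrations were applied to cells in 96-well plates for 48 hours; endpoints were derived by simple linear interpolation of the resulting dose-response curve. GI50 marks 50% less growth.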 Active and inactive are the calls of the source. Rule as the data show it: active = GI50 up to about 1.1 µM and inactive = higher.

`COc1cc(/C=N/c2ccc(Oc3ccc(Cl)cc3)c(Cl)c2)cc(OC)c1OC`: the GI50 was 13.8 µM (inactive) in [1]; 29.6 µM (inactive) in assay [2]; 23.7 µM (inactive) in [3]; 21.8 µM (inactive) in [4]; 21.8 µM (inactive) in assay [5]; 15.8 µM (inactive) in [6]. Besides, the GI50 in assay [7] was 22.9 µM (inactive); in assay [8] it was 23.3 µM (inactive); in [9] it was 16.4 µM (inactive); in assay [10], 19.5 µM; in assay [11] it was 3.53 µM (inactive); in [12] it was 14.3 µM (inactive). Besides, the GI50 in assay [13] was 15.3 µM (inactive); in assay [14], 20.7 µM (inactive); in assay [15], 18.2 µM (inactive); in assay [16], 25.8 µM (inactive); in assay [17] it was 18.2 µM (inactive); in assay [18], 13.6 µM (inactive).
Take `CC(/C=C/c1ccc([N+](=O)[O-])o1)=N/N1CC(CN2CCOCC2)OC1=O` (stereo unspecified): the GI50 is 11.4 µM (inactive) in [1]; 13.1 µM (inactive) in assay [2]; 48.1 µM (inactive) in assay [5]; 44.8 µM (inactive) in assay [6]; 30.2 µM (inactive) in [7]; 17.3 µM (inactive) in [8]. The GI50 in assay [9] is 22.9 µM (inactive); in assay [10], 16.5 µM; in assay [11], 16.5 µM (inactive); in assay [12], 14 µM (inactive); in assay [13] it was 17.3 µM (inactive); in [14] it was 17.5 µM (inactive). The GI50 in assay [15] is 86.1 µM (inactive); in [16], 16.5 µM (inactive); in assay [17] it was 28.5 µM (inactive); in assay [18], 28.1 µM (inactive).
Turning to `CSc1ccc(/C=C2\N=C(c3ccccc3)N(NC(=O)c3c(Cl)c(Cl)c(Cl)c(Cl)c3-c3nc4ccccc4[nH]3)C2=O)cc1`, the GI50 in assay [1] is 25.2 µM (inactive); in assay [2], 19.5 µM (inactive); in assay [3], 8.3 µM (inactive); in assay [4], 1.79 µM (inactive); in [5] it was 48.5 µM (inactive); in assay [6], 34.8 µM (inactive). For the same compound, the GI50 in [7] is 25.1 µM (inactive); in [8] it was 29.6 µM (inactive); in assay [9] it was 33 µM (inactive); in assay [10], 15.1 µM; in [11], 2.03 µM (inactive); in assay [12], 36.6 µM (inactive). Further, the GI50 in [13] is 19.2 µM (inactive); in assay [14], 28.4 µM (inactive); in [15] it was 4.49 µM (inactive); in assay [16], 37.8 µM (inactive); in assay [18] it was 36 µM (inactive).
On to `CC1(C)CC(=O)c2c(nc3ccc4ccccc4c3c2-c2ccc(NC(=O)CCCCCCCCC(=O)Nc3ccc(-c4c5c(nc6ccc7ccccc7c46)CC(C)(C)CC5=O)cc3)cc2)C1`, for which the GI50 in assay [1], in [2], in assay [4], in assay [5], in assay [6] and in [7] was > 100 µM (inactive) throughout. For the same compound, the GI50 in assay [8] was > 100 µM (inactive); in assay [9], > 100 µM (inactive); in assay [10], above 100 µM; in assay [11] it was > 100 µM (inactive); in assay [12], > 100 µM (inactive); in [13] it was > 100 µM (inactive). The GI50 in assay [14], in [15], in assay [16], in assay [17] and in [18] was > 100 µM (inactive) each time.
`COC1=C(OC)C(=O)C(Cc2c(Cl)nc3sccn23)=C(C)C1=O`: the GI50 is 13.6 µM (inactive) in [1]; 10.2 µM (inactive) in assay [2]; 15.7 µM (inactive) in assay [4]; 13.5 µM (inactive) in assay [5]; 16.1 µM (inactive) in assay [19]; 11.4 µM (inactive) in [6]. In addition, the GI50 was 5.89 µM (inactive) in [7]; 11.7 µM (inactive) in [8]; 12.5 µM (inactive) in [9]; 12.6 µM in assay [10]; 2.76 µM (inactive) in assay [11]; 14.2 µM (inactive) in assay [12]. Besides, the GI50 is 5.2 µM (inactive) in assay [13]; 3.32 µM (inactive) in [14]; 12.4 µM (inactive) in assay [15]; 13.5 µM (inactive) in [16]; 12.6 µM (inactive) in assay [17]; 16.7 µM (inactive) in assay [18].
`COc1ccc(NC(C)=O)cc1C1CCC(=O)N1` (stereo unspecified): the GI50 in assay [1], in [2], in assay [3], in assay [4], in assay [5] and in assay [6] was > 100 µM (inactive) in each case. Besides, the GI50 was > 100 µM (inactive) in assay [7]; > 100 µM (inactive) in assay [8]; > 100 µM (inactive) in [9]; above 100 µM in assay [10]; > 100 µM (inactive) in [11]; > 100 µM (inactive) in assay [12]. Also, the GI50 in [13], in assay [14], in assay [15], in assay [16], in [17] and in assay [18] was > 100 µM (inactive) each time.
For `CCNCC(O)c1ccc(N)c([N+](=O)[O-])c1` (stereo unspecified), the GI50 in assay [1], in assay [2], in assay [3], in assay [4], in assay [5] and in [6] was > 100 µM (inactive) in each case. Further, the GI50 in [7] is > 100 µM (inactive); in assay [8] it was > 100 µM (inactive); in [9] it was > 100 µM (inactive); in assay [10], above 100 µM; in assay [11], > 100 µM (inactive); in [12] it was > 100 µM (inactive). Further, the GI50 in assay [13], in assay [14], in assay [15], in assay [16], in assay [17] and in assay [18] was > 100 µM (inactive) in each case.
Consider `C/C=C(/C)c1cnc(CC(C)C)c(=O)[nH]1`, for which the GI50 in assay [1], in assay [3], in assay [4], in assay [5], in [19] and in [6] was > 100 µM (inactive) in each case. The GI50 in [10] was above 100 µM; in assay [11], > 100 µM (inactive); in assay [12] it was > 100 µM (inactive); in assay [13] it was > 100 µM (inactive); in [14] it was > 100 µM (inactive); in assay [15] it was > 100 µM (inactive). The GI50 in assay [16], in [17] and in [18] was > 100 µM (inactive) throughout.
For `Cc1cn(CC(=S)NCCc2c[nH]c3ccccc23)c(=O)[nH]c1=O`, the GI50 in assay [1] was 76.7 µM (inactive); in assay [2], 63.7 µM (inactive); in [4] it was > 100 µM (inactive); in [5], > 100 µM (inactive); in assay [19] it was > 100 µM (inactive); in assay [6], 84.1 µM (inactive). Further, the GI50 in assay [7] is 99.1 µM (inactive); in [8] it was > 100 µM (inactive); in assay [9] it was > 100 µM (inactive); in assay [10], above 100 µM; in assay [11], 34.5 µM (inactive); in assay [12], 77.1 µM (inactive). The GI50 is 70 µM (inactive) in assay [13], > 100 µM (inactive) in assay [17] and > 100 µM (inactive) in assay [18].
For `Cc1ccc(-c2c(C#N)c(-c3ccc(Cl)cc3)c(C#N)c(=O)n2NS(=O)(=O)c2ccccc2)cc1`, the GI50 in [1] was 59 µM (inactive); in [2], 51.2 µM (inactive); in assay [3] it was 47.5 µM (inactive); in [4], 33 µM (inactive); in assay [5], 80.7 µM (inactive); in assay [19] it was 32 µM (inactive). Besides, the GI50 in assay [6] was 24.4 µM (inactive); in assay [7], 26.9 µM (inactive); in assay [8] it was > 100 µM (inactive); in [9] it was 44.9 µM (inactive); in assay [10], 51.6 µM; in assay [12], 29.9 µM (inactive). Also, the GI50 was 58.6 µM (inactive) in assay [13]; > 100 µM (inactive) in assay [14]; 60.8 µM (inactive) in assay [15]; 76.4 µM (inactive) in assay [16]; 74.8 µM (inactive) in assay [17]; 86.5 µM (inactive) in assay [18].
Turning to `C[C@H]1CC[C@@H]2[C@@H](C)C[C@H]3[C@@H]4C(C)(C)OC(=O)[C@]4(C)C(=O)[C@@]23C1=O`, the GI50 in assay [1], in assay [2], in assay [3], in [4], in [5] and in [6] was > 100 µM (inactive) throughout. Besides, the GI50 was > 100 µM (inactive) in [7]; > 100 µM (inactive) in assay [8]; > 100 µM (inactive) in [9]; above 100 µM in assay [10]; 14 µM (inactive) in assay [11]; > 100 µM (inactive) in assay [13]. In addition, the GI50 in assay [14], in [15], in [16] and in assay [18] was > 100 µM (inactive) throughout.
